Reference: PMC10907494, “Applications of biaryl cyclization in the synthesis of cyclic enkephalin analogs with a highly restricted flexibility” (Amino Acids, 2024)
Marks after values point to notes of the source that are not given here.

Molecular target: μ-opioid receptor (MOR) (Rattus norvegicus, UniProt P33535)
Test: biochemical
Conditions: for Radioligand SB at 30 μM of ligand (% of radioligand specific binding): mean and standard deviation; for % of radioligand specific binding at 3 μM, mean / % of radioligand specific binding at 10 μM, mean / % of radioligand specific binding at 30 μM, mean: initial screening; for MOR binding, times weaker than that of the linear counterpart: ratio of IC50 values, cyclic analog vs its linear counterpart
Procedure: The binding affinity of cyclic and linear enkephalin analogs for μ-opioid receptor (MOR) was determined in competitive radioligand binding assays using membrane preparations from rat brain homogenates. The homogenates were obtained as described previously (Matalińska et al. [2020]). The membrane preparations were incubated at 25 °C for 60 min in the presence of 1.0 nM [^3H]DAMGO (obtained from PerkinElmer, USA) and the set of concentrations of the assayed compound proper for a particular compound and type of determination (screening or a full-displacement curve).
For screening purposes, we performed the experiments with the following concentrations of the compounds tested: 30 μM, 10 μM, and 3 μM. For full-displacement curves, 10 concentrations ranging either from 0.03 nM to 1 μM or from 300 nM to 30 μM were used. The range was chosen for the single compounds in a manner such that the expected IC50 would fall in the middle of the range. In the case of several experiments, only five concentrations were used (they are marked in the results table).
Non-specific binding was measured in the presence of 10 μM naloxone. The assays were conducted with the assay buffer made of 50 mM Tris–HCl (pH 7.4), bacitracin (100 μg/ml), bestatin (30 μM), and captopril (10 μM), phenylmethylsulfonyl fluoride (PMSF, 30 μg/ml) in a total volume of 0.5 ml. After the incubation, a rapid filtration with a M-24 Cell Harvester (Brandel/USA) through GF/B Whatman glass fiber strips was conducted. The filters were soaked with 0.5% PEI just before the harvesting so as to minimize the extent of non-specific binding. Filter disks were cut from the sheet and placed separately in 24-well plates. The Optiphase Supermix scintillation solution (Perkin Elmer, USA) was added to each well. Radioactivity was measured in a scintillation counter MicroBeta LS, Trilux (PerkinElmer, USA). Displacement curves were drawn and the mean IC50 values were determined with SEMs (GraphPad Prism v. 5.0, San Diego, CA).

[1] = IC50 (estimation based on the screening results), estimated from screening at 30 μM, 10 μM and 3 μM, [3H]DAMGO, rat brain membranes
[2] = IC50 ± S.E.M., full-displacement curves, 1.0 nM [3H]DAMGO, rat brain membranes, 25 °C, 60 min, mean of 2 or 3 experiments unless footnoted
[3] = estimated IC50, estimated from initial screening at 30, 10 and 3 μM

Chain of μ-opioid receptor (MOR) (P33535 whole entry): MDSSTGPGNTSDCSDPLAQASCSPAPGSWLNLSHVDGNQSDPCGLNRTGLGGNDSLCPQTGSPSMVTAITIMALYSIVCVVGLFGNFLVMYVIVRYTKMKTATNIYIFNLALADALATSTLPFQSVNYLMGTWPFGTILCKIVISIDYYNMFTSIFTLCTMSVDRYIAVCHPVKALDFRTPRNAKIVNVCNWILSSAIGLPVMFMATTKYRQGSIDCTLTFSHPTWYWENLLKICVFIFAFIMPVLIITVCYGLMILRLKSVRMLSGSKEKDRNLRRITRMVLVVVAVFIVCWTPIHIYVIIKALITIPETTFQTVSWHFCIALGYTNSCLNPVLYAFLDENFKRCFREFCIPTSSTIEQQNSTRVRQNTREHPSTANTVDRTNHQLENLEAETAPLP

Molecule | Radioligand SB at 30 μM of ligand (% of radioligand specific binding) ([3H]DAMGO) [%] | % of radioligand specific binding at 3 μM, mean | % of radioligand specific binding at 10 μM, mean | % of radioligand specific binding at 30 μM, mean | IC50 [1] [nM] | IC50 [2] [nM] | IC50 [3] [nM] | MOR binding reduced, times, compared to the parent [Leu^5]enk-NH2 (ratio of IC50 values vs [Leu^5]enk-NH2) | MOR binding, times weaker than that of the linear counterpart [times]
H-Phe-Gly-Gly-Tyr-Leu-NH2 (H-FGGYL-NH2) [[Phe^1,Tyr^4,Leu^5]enk-NH2, reference compound] | 43 ± 11 | 85% | 61% | 43% | – | – | – | – | –
CC(C)C[C@H](NC(=O)[C@@H]1Cc2ccc(O)c(c2)-c2cc(ccc2O)C[C@H](N)C(=O)NCC(=O)NCC(=O)N1)C(N)=O [c-(Tyr-m-Tyr-m)-L-NH2, H-(cyclo-m,m)-[Tyr-Gly-Gly-Tyr]-Leu-NH2] | 117 ± 1 | 87% | 102% | 117% | > 30000 | – | – | – | –
H-FGGFL-NH2 [[Phe^1,Leu^5]enk-NH2, H-Phe-Gly-Gly-Phe-Leu-NH2, reference compound] | 5 ± 1 | 26^c) % | 13^c) % | 5^c) % | – | 596 ± 48.8 | < 3000 | – | –
CC(C)C[C@H](NC(=O)[C@@H]1Cc2ccc(cc2)-c2cc(ccc2O)C[C@H](N)C(=O)NCC(=O)NCC(=O)N1)C(N)=O [c-(Tyr-m-Phe-p)-L-NH2, H-(cyclo-m,p)-[Tyr-Gly-Gly-Phe]-Leu-NH2] | 77 ± 4 | 99% | 78% | 77% | > 30000 | – | – | – | –
H-YGGYL-NH2 [[Tyr^4,Leu^5]enk-NH2, H-Tyr-Gly-Gly-Tyr-Leu-NH2, reference compound] | – | – | – | – | – | 222 ± 15.9 | – | about 40 times | –
CC(C)C[C@H](NC(=O)[C@@H]1Cc2ccc(cc2)-c2ccc(cc2)C[C@H](N)C(=O)NCC(=O)NCC(=O)N1)C(N)=O [c-(Phe-p-Phe-p)-L-NH2, H-(cyclo-p,p)-[Phe-Gly-Gly-Phe]-Leu-NH2] | 73 ± 19 | 110% | 78% | 73% | > 30000 | – | – | – | –
H-(cyclo-m,p)-[Tyr-Gly-Gly-Phe]-Leu-OH [c-(Tyr-m-Phe-p)-L-OH] | 36 ± 6 | 88% | 60% | 36% | – | – | – | – | –
CC(C)C[C@H](NC(=O)[C@@H]1Cc2ccc(O)c(c2)-c2ccc(cc2)C[C@H](N)C(=O)NCC(=O)NCC(=O)N1)C(N)=O [c-(Phe-p-Tyr-m)-L-NH2, H-(cyclo-p,m)-[Phe-Gly-Gly-Tyr]-Leu-NH2] | 17 ± 3 | 62^c) % | 34^c) % | 17^c) % | – | 6670 ± 262 | – | – | –
CSCC[C@H](NC(=O)[C@@H]1Cc2ccc(cc2)-c2cc(ccc2O)C[C@H](N)C(=O)NCC(=O)NCC(=O)N1)C(N)=O [c-(Tyr-m-Phe-p)-M-NH2, H-(cyclo-m,p)-[Tyr-Gly-Gly-Phe]-Met-NH2] | 12 ± 4 | 49% | 34% | 12% | – | 1370 ± 266 | ~1000 | – | ~500
CC(C)C[C@H](NC(=O)[C@@H]1Cc2cccc(c2)-c2cc(ccc2O)C[C@H](N)C(=O)NCC(=O)NCC(=O)N1)C(N)=O [c-(Tyr-m-Phe-m)-L-NH2, H-(cyclo-m,m)-[Tyr-Gly-Gly-Phe]-Leu-NH2] | 12 ± 3 | 64% | 28% | 12% | – | 3080 | – | – | ~500
